Among the data in ChEMBL document CHEMBL1141801, “N-(jasmonoyl)tyrosine-derived compounds from flowers of broad beans (Vicia faba)” (J Nat Prod, 2005) are Activity values, retold here.

Activity calls are given as the source filed them. The rule behind the calls is not given here.

Assay [1] deals with T1, Tyrosinase (Agaricus bisporus) (UniProt O42713).
T1 sequence (whole entry): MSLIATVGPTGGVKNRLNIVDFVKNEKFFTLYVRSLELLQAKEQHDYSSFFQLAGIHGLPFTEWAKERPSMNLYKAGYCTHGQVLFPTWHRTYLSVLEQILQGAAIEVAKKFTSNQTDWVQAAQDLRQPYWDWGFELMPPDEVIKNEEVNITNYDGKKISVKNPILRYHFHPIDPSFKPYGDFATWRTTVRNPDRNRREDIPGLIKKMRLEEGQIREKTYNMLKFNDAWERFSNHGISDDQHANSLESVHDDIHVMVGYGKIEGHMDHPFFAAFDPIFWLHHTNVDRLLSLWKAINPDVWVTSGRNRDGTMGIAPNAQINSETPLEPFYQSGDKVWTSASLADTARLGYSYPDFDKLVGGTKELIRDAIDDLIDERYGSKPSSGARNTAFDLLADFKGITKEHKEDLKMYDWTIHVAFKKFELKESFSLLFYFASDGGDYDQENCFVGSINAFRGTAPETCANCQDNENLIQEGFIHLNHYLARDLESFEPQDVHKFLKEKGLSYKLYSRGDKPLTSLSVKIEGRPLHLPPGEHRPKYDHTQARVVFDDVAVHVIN
Put plainly: Activity of mushroom tyrosinase assessed as specific activity pkat per mg of protein.

The test system of assay [2] is Eschscholzia californica. Put plainly: Elicitor activity in Eschscholzia californica Cham. assessed as elicitation of chelirubine formation at 300 uM. Type of assay: functional, organism-based.
Assay [3] relates to Eschscholzia californica. Put plainly: Elicitor activity in Eschscholzia californica Cham. assessed as elicitation of chelirubine formation at 30 uM. Type of assay: functional, organism-based.
Assay [4] concerns Eschscholzia californica. Put plainly: Elicitor activity in Eschscholzia californica Cham. assessed as elicitation of chelirubine formation. In kind it is functional, organism-based.

As to `N[C@@H](Cc1ccc(O)cc1)C(=O)O`, the Activity in assay [1] is 15600.
Same read-out and setting: then `CC/C=C\CC1C(=O)CCC1CC(=O)N[C@@H](Cc1ccc(O)cc1)C(=O)O` (mixture of isomers), with 2320.
Regarding `CC/C=C\CC1C(=O)CCC1CC(=O)NCCc1ccc(O)c(O)c1` (racemic), the result in assay [2] and in assay [3] was Active.
On to `CC/C=C\CC1C(=O)CCC1CC(=O)NCCc1ccc(O)cc1` (racemic), for which the Activity in assay [1] amounted to 5630. Moreover, the result in assay [2] and in assay [3] was Active.
For the compound `CC/C=C\CC1C(=O)CCC1CC(=O)O` (racemic), the outcome in assay [4] was Active.
